Columns and labels:
[1] = tested on: mechano-currents from DRG neurons; conditions: cited from earlier work
mouse PIEZO2 = experiment: Whole-cell patch-clamp with mechanical indentation of N2A^Piezo1−/− cells transfected with Piezo2 variant 2 (V2); conditions: latrunculin A 1 μM for 1 h
Method: (§1) Cell culture and electrophysiology: Piezo1 knock-out mouse N2A (N2A^Piezo1−/−) cells were a gift from Dr. Gary R. Lewin, human Merkel cell carcinoma cell line (MCC13 cells; Cell Bank Australia reference number: CBA1338) were obtained from Sigma, and DRG neurons were obtained from sacrificed mice. N2A^Piezo1−/− cells were cultured in Dulbecco's Modified Eagle Medium (DMEM), 5% penicillin streptomycin and 10% fetal bovine serum (FBS); MCC13 cells were cultured in RPMI 1640 (with 2 mM L-glutamine+25 mM HEPES; Sigma), 5% penicillin-streptomycin and 10% FBS and; DRG neurons were cultured in DMEM, 1% penicillin-streptomycin, 1% MEM vitamin solution, 1% L-glutamine, and 10% horse serum. Prior to electrophysiological measurements, N2A^Piezo1−/−, MCC13 and DRG neurons were supplemented overnight (≈18 h) with MA. […] MA was obtained from Nu-Chek Prep, INC. The cultured cells were maintained at 37° C., 95% relative humidity, and 5% CO2.
For whole-cell recordings, the bath solution contained 140 mM NaCl, 6 mM KCl, 2 mM CaCl2), 1 mM MgCl2, 10 mM glucose, and 10 mM HEPES (pH 7.4; 300 mOsm). The pipette solution for voltage-clamp recordings contained: 140 mM CsCl, 5 mM EGTA, 1 mM CaCl2), 1 mM MgCl2, and 10 mM HEPES (pH 7.2); and for current clamp recordings: 140 mM KCl, 6 mM NaCl, 2 mM CaCl2), 1 mM MgCl2, 10 mM glucose, and 10 mM HEPES (pH 7.4; 300 mOsm); MA and bradykinin acetate salt (Sigma) perfused during experiments were dissolved in the bath solution to a final concentration of 300 μM for 2 min, and 1 μM for 5 min respectively; and for long exposure experiments bradykinin was supplemented to the culture medium and added to the cells 18-24 h prior recording. For cytoskeleton disruption experiments, N2A^Piezo1−/− were incubated in media supplemented with 1 μM latrunculin A (Cayman Chemicals) for 1 h prior recordings. Pipettes were made out of borosilicate glass (Sutter Instruments) and were fire-polished before use until a resistance between 3 and 5 MΩ was reached.
During mechanical stimulation, currents were recorded at a constant voltage (−60 mV, voltage-clamp), and voltages were recorded without injecting current (current-clamp). Both variables were sampled at 100 kHz and low-pass filtered at 10 kHz using a MultiClamp™ 700 B amplifier and Clampex (Molecular Devices, LLC). […] Leak currents before mechanical stimulations were subtracted off-line from the current traces and data were digitally filtered at 2 kHz with ClampFit (Molecular Devices, LLC).
Mechanical stimulation: For indentation assays, N2A^Piezo1−/−, MCC13 DRG neurons, and human iPSC374 derived neurons were mechanically stimulated with a heat-polished blunt glass pipette (3-4 μm) driven by a piezo servo controller (E625, Physik Instrumente). The blunt pipette was mounted on a micromanipulator at an ~45° angle and positioned 3-4 μm above from the cells without indenting them. Displacement measurements were obtained with a square-pulse protocol consisting of 1 μm incremental indentation steps, each lasting 200 ms with a 2-ms ramp in 10-s intervals. The threshold of mechano-activated currents for each experiment was defined as the indentation step that evoked the first current deflection from the baseline.

[2] = tested on: PIEZO2-PIEZO1 beam chimera; experiment: Whole-cell patch-clamp of N2A^Piezo1−/− cells transfected with Piezo2-Piezo1 beam chimera; conditions: MA 100 μM 18 h; latrunculin A 1 μM for 1 h
Method: as §1
For whole-cell recordings, the bath solution contained 140 mM NaCl, 6 mM KCl, 2 mM CaCl2), 1 mM MgCl2, 10 mM glucose, and 10 mM HEPES (pH 7.4; 300 mOsm). The pipette solution for voltage-clamp recordings contained: 140 mM CsCl, 5 mM EGTA, 1 mM CaCl2), 1 mM MgCl2, and 10 mM HEPES (pH 7.2); and for current clamp recordings: 140 mM KCl, 6 mM NaCl, 2 mM CaCl2), 1 mM MgCl2, 10 mM glucose, and 10 mM HEPES (pH 7.4; 300 mOsm); MA and bradykinin acetate salt (Sigma) perfused during experiments were dissolved in the bath solution to a final concentration of 300 μM for 2 min, and 1 μM for 5 min respectively; and for long exposure experiments bradykinin was supplemented to the culture medium and added to the cells 18-24 h prior recording. For cytoskeleton disruption experiments, N2A^Piezo1−/− were incubated in media supplemented with 1 μM latrunculin A (Cayman Chemicals) for 1 h prior recordings. […]
During mechanical stimulation, currents were recorded at a constant voltage (−60 mV, voltage-clamp), and voltages were recorded without injecting current (current-clamp). […]

mice = experiment: Von Frey test after acute inflammation by topical AITC; assay type: in vivo, mouse; conditions: topical AITC; saline injected mice; filaments <0.16 g
Method: Mice behavior: MA solution: MA was prepared in sterile Dulbecco's phosphate buffered saline, with 70 g/L fatty acid free bovine serum albumin (BSA; Sigma), and MA to a final concentration of 5 mM. The solution was filtered to avoid undissolved materials.
Subjects: For the experiment 8-12 weeks old male and female C57B16/J mice (N=12; control n=6; male=3, female=3) MA (n=6; male=3, female=3) per experiment were used. Mice were housed under a 12 hr light dark cycle and granted access to food and water ad libitum.
Treatment: Animals were put in two groups (control and MA) and given injections in the plantar of the left hind paw for 7 days prior behavioral assessment. Injections were given as follows: Mouse is restrained by their tail, foot, and over shoulders scruff. […]
Mechanical threshold (Von Frey test): Punctate mechanical allodynia was measured using Von Frey monofilaments (Stoelting, Inc.) in varying grams of force (0.008-1 g). Animals were placed in small enclosures over a wire mesh and the plantar of the hind paw was poked with a filament and responses were recorded. Withdrawal responses were recorded when the animal lifted, shook, or licked the paw in response to stimulus presentation. […]

GsMTx-4
inhibition of mechano-currents [1]: failed to inhibit mechano-currents from DRG neurons

C/C1=C/C(=O)O[C@@H]2C[C@@H](CC[C@H](C)/C=C\C=C\CC1)O[C@@](O)([C@@H]1CSC(=O)N1)C2 [latrunculin A, reference compound]
effect of latrunculin A on PIEZO2 inhibition by MA (mouse PIEZO2): enhances PIEZO2 inhibition by MA | effect of latrunculin A on PIEZO2 inhibition by MA (mouse PIEZO2; listed as Latrunculin A): pronounced leftward shift in the MA dose-response profile for PIEZO2 | modulation of the MA effect on the chimera by latrunculin A [2]: not modulated by latrunculin A treatment

C=CCN=C=S [AITC, Allyl isothiocyanate, reference compound]
withdrawal from von Frey filaments caused by AITC (mice): causes mice to withdraw their hind paws from even the lightest von Frey filaments
